Values of other authors in patent US6071923A, “Retinoyloxy aryl-substituted alkylene butyrates useful for the treatment of cancer and other proliferative diseases” (Bar-Ilan University, priority 1997, dated 2000).
pEC50: −log10 of the molar value. Values joined by “and” are separate entries in the source; they are usually repeats but may differ in a detail not shown here. Identical values can stand only once. Like-named read-outs stand apart in the source and are kept apart here.

System: HL-60 cells
[1] = HL-60 human promyelocytic cell line, agent alone, read-out: ED50, induction of differentiation of HL-60 cells, agent alone

| SMILES | dose reduction index value (HL-60 cells, BA ED50 alone versus with about 28 nM RA) | pEC50 (HL-60 cells, BA combined with about 28 nM RA, read-out: ED50 value for BA in combination with RA) | pEC50 [1] |
| --- | --- | --- | --- |
| CCCC(=O)O [BA, Butyric acid] | about 6 fold | ~4.12 | 3.35 and ~3.40 |
| CC1=C(/C=C/C(C)=C/C=C/C(C)=C/C(=O)O)C(C)(C)CCC1 [RA, retinoic acid] | – | – | 6.89 |
